Measurements: ChEMBL document CHEMBL5104193, “Hypoxia-Activated Prodrugs with Dual COX-2/CA Inhibitory Effects on Attenuating Cardiac Inflammation under Hypoxia” (J Med Chem, 2022)
The source made the active and inactive calls. The rule behind the calls is not given here.

Legend:
[1] = tested on: H9c2; experiment: Protection against LPS/hypoxia induced apoptosis in rat H9c2 cells assessed as reduction in green fluorescence in presence of 2-(4-(5-oxo-5-((5-sulfamoyl-1,3,4-thiadiazol-2-yl)amino)pentyl)-1H-1,2,3-triazol-1-yl)acetic acid by confocal microscopy analysis; type: functional, cell-based
[2] = tested on: Rattus norvegicus; experiment: Antiinflammatory activity against LPS/talc powder induced pericarditic Wistar rat assessed as elimination of pericardial effusion at 20 mg/kg, ip pretreated for 2 hrs followed by LPS/tal powder stimulation measured after 48 hrs in presence of 2-(4-(5-oxo-5-((5-sulfamoyl-1,3,4-thiadiazol-2-yl)amino)pentyl)-1H-1,2,3-triazol-1-yl)acetic acid; type: functional, organism-based; conditions: time 50.0 hrs
[3] = tested on: H9c2; experiment: Inhibition of intracellular ROS level in LPS/hypoxia induced rat H9c2 cells in presence of 2-(4-(5-oxo-5-((5-sulfamoyl-1,3,4-thiadiazol-2-yl)amino)pentyl)-1H-1,2,3-triazol-1-yl)acetic acid by DCFH-DA probe based fluorescence confocal microscopy analysis; type: functional, cell-based
[4] = tested on: H9c2; experiment: Antiinflammatory activity in LPS/hypoxia induced CA9 knockdown rat H9c2 cells assessed as decrease in TNF-alpha protein level at 10 uM by Western blot analysis; type: functional, cell-based
[5] = tested on: H9c2; experiment: Protection against LPS/hypoxia induced apoptosis in rat H9c2 cells assessed as reduction in red fluorescence in presence of 2-(4-(5-oxo-5-((5-sulfamoyl-1,3,4-thiadiazol-2-yl)amino)pentyl)-1H-1,2,3-triazol-1-yl)acetic acid by confocal microscopy analysis; type: functional, cell-based
[6] = tested on: Rattus norvegicus; experiment: Antiinflammatory activity against LPS/talc powder induced pericarditic Wistar rat assessed as reduction in torsion T wave inversion at 20 mg/kg, ip pretreated for 2 hrs followed by LPS/tal powder stimulation measured after 48 hrs in presence of 2-(4-(5-oxo-5-((5-sulfamoyl-1,3,4-thiadiazol-2-yl)amino)pentyl)-1H-1,2,3-triazol-1-yl)acetic acid by ECG analysis; type: functional, organism-based; conditions: time 50.0 hrs
[7] = tested on: H9c2; experiment: Protection against LPS/hypoxia induced apoptosis in rat H9c2 cells assessed as reduction in necrotic cells at 10 umol/L incubated for 4 hrs under hypoxia condition by AnnexinV-FITC/propidium iodide staining based flow cytometry analysis (reference value: 31.02%); type: functional; parameters: scale not given: the % may be the effect or the level left; conditions: dose 10 µmol/L, at 10 µM
[8] = tested on: H9c2; experiment: Protection against LPS/hypoxia induced cell injury in rat H9c2 cells assessed as recovery of cell viability at 10 uM by CCK-8 assay; type: functional, cell-based
[9] = tested on: H9c2; experiment: Anti-inflammatory activity in rat H9c2 cells assessed as inhibition of endogenous IL-6 protein expression in presence of 2-(4-(5-oxo-5-((5-sulfamoyl-1,3,4-thiadiazol-2-yl)amino)pentyl)-1H-1,2,3-triazol-1-yl)acetic acid by DAPI staining based immunofluorescence analysis; type: functional, cell-based
[10] = tested on: H9c2; experiment: Anti-inflammatory activity in LPS/hypoxia induced rat H9c2 cells assessed as reduction of TNF-alpha protein expression at 10 uM by Western blot analysis; type: functional, cell-based
[11] = Toxicity in Wistar rat assessed as change in BUN level in presence of 2-(4-(5-oxo-5-((5-sulfamoyl-1,3,4-thiadiazol-2-yl)amino)pentyl)-1H-1,2,3-triazol-1-yl)acetic acid; conditions: in vivo
[12] = tested on: Rattus norvegicus; experiment: Antiinflammatory activity against LPS/talc powder induced pericarditic Wistar rat assessed as reduction in heart swelling at 20 mg/kg, ip pretreated for 2 hrs followed by LPS/tal powder stimulation measured after 48 hrs in presence of 2-(4-(5-oxo-5-((5-sulfamoyl-1,3,4-thiadiazol-2-yl)amino)pentyl)-1H-1,2,3-triazol-1-yl)acetic acid; type: functional, organism-based; conditions: time 50.0 hrs
[13] = tested on: H9c2; experiment: Protection against LPS/hypoxia induced apoptosis in rat H9c2 cells assessed as reduction in red fluorescence by confocal microscopy analysis; type: functional, cell-based
[14] = tested on: H9c2; experiment: Reversal of ATP level in LPS/hypoxia induced rat H9c2 cells in presence of 2-(4-(5-oxo-5-((5-sulfamoyl-1,3,4-thiadiazol-2-yl)amino)pentyl)-1H-1,2,3-triazol-1-yl)acetic acid by multimode plate reader analysis (reference value: 21.37 nmol/mg); type: functional
[15] = tested on: H9c2; experiment: Anti-inflammatory activity in LPS/hypoxia induced rat H9c2 cells assessed as reduction of IL-6 protein expression at 10 uM by Western blot analysis; type: functional, cell-based
[16] = tested on: H9c2; experiment: Protection against LPS/hypoxia induced apoptosis in rat H9c2 cells assessed as reduction in necrotic cells at 10 umol/L incubated for 4 hrs under hypoxia condition in presence of 2-(4-(5-oxo-5-((5-sulfamoyl-1,3,4-thiadiazol-2-yl)amino)pentyl)-1H-1,2,3-triazol-1-yl)acetic acid by AnnexinV-FITC/propidium iodide staining based flow cytometry analysis (reference value: 31.02%); type: functional; parameters: scale not given: the % may be the effect or the level left; conditions: dose 10 µmol/L, at 10 µM
[17] = tested on: Rattus norvegicus; experiment: Antiinflammatory activity in LPS/talc powder induced pericarditic Wistar rat assessed as increase in cTNI level in serum at 20 mg/kg, ip pretreated for 2 hrs followed by LPS/tal powder stimulation measured after 48 hrs in presence of 2-(4-(5-oxo-5-((5-sulfamoyl-1,3,4-thiadiazol-2-yl)amino)pentyl)-1H-1,2,3-triazol-1-yl)acetic acid (reference value: 0.167+/-0.025 ng/ml); type: functional; conditions: time 50 hrs
[18] = tested on: H9c2; experiment: Antiinflammatory activity in LPS/hypoxia induced CA9 knockdown rat H9c2 cells assessed as decrease in IL-6 protein level at 10 uM by Western blot analysis; type: functional, cell-based
[19] = tested on: H9c2; experiment: Anti-inflammatory activity in LPS/hypoxia induced rat H9c2 cells assessed as reduction of IL-6 protein expression at 10 uM in presence of 2-(4-(5-oxo-5-((5-sulfamoyl-1,3,4-thiadiazol-2-yl)amino)pentyl)-1H-1,2,3-triazol-1-yl)acetic acid by Western blot analysis; type: functional, cell-based
[20] = tested on: H9c2; experiment: Protection against LPS/hypoxia induced cell injury in rat H9c2 cells assessed as recovery of cell viability in presence of 2-(4-(5-oxo-5-((5-sulfamoyl-1,3,4-thiadiazol-2-yl)amino)pentyl)-1H-1,2,3-triazol-1-yl)acetic acid by CCK-8 assay (reference value: 69.0%); type: functional
[21] = tested on: H9c2; experiment: Anti-inflammatory activity in rat H9c2 cells assessed as downregulation of cytochrome C expression at 10 uM by Western blot analysis; type: functional, cell-based
[22] = tested on: H9c2; experiment: Protection against LPS/hypoxia induced cell injury in rat H9c2 cells assessed as recovery of cell viability in presence of 2-(4-(5-oxo-5-((5-sulfamoyl-1,3,4-thiadiazol-2-yl)amino)pentyl)-1H-1,2,3-triazol-1-yl)acetic acid and Na2WO4 by CCK-8 assay; type: functional, cell-based
[23] = tested on: H9c2; experiment: Reversal of LPS/hypoxia induced mitochondrial membrane potential loss in rat H9c2 cells in presence of 2-(4-(5-oxo-5-((5-sulfamoyl-1,3,4-thiadiazol-2-yl)amino)pentyl)-1H-1,2,3-triazol-1-yl)acetic acid by JC-1 dye based flow cytometry analysis; type: functional, cell-based
[24] = Toxicity in Wistar rat assessed as change in ALT level in presence of 2-(4-(5-oxo-5-((5-sulfamoyl-1,3,4-thiadiazol-2-yl)amino)pentyl)-1H-1,2,3-triazol-1-yl)acetic acid; conditions: in vivo
[25] = Stability of the compound assessed as NTR (unknown origin) mediated hydrolysis by measuring half life by UV spectrophotometry; type: ADME; conditions: human
[26] = tested on: H9c2; experiment: Anti-inflammatory activity in rat H9c2 cells assessed as downregulation of cytochrome C expression at 10 uM in presence of 2-(4-(5-oxo-5-((5-sulfamoyl-1,3,4-thiadiazol-2-yl)amino)pentyl)-1H-1,2,3-triazol-1-yl)acetic acid by Western blot analysis; type: functional, cell-based

COc1ccc2c(c1)c(CC(=O)O)c(C)n2C(=O)c1ccc(Cl)cc1 [INDOMETHACIN]
Activity [1]: Active
Activity [2]: Active
inhibition [3]: Active
Activity [4]: Active
Activity [5]: Active
Activity [6]: Active
Activity [7]: 23.96%
Activity [8]: Active
Activity [9]: Active
Activity [10]: Active
Activity [11]: Toxic
Activity [12]: Active
Activity [13]: Active
Activity [14]: 47.52 nmol/mg
Activity [15]: Active
Activity [16]: 9.61%
Activity [17]: 0.121 ng/mL
Activity [18]: Active
Activity [19]: Active
Activity [20]: 91.8%
Activity [21]: Active
Activity [22]: Active
Activity [23]: Active
Activity [24]: Toxic
t1/2 [25]: 21.6 min
Activity [26]: Active
